Source: the NIST ThermoML archive (doi:10.1007/s10765-010-0766-0)

Conditions: Liquid, Pycnometric method

FC(F)C(F)(F)OCC(F)(F)F [2,2,2-trifluoroethyl 1,1,2,2-tetrafluoroethyl ether]
Conditions	mass density [kg/m3]
279.15 K, 5663 kPa	1535.2
280.15 K, 6663 kPa	1534.9
280.15 K, 6673 kPa	1534.9
281.15 K, 7673 kPa	1534.6
281.15 K, 7685 kPa	1534.7
282.15 K, 8685 kPa	1534.4
282.15 K, 8696 kPa	1534.5
283.15 K, 9695 kPa	1534.2
283.15 K, 9705 kPa	1534.3
284.15 K, 10704 kPa	1534
284.15 K, 10712 kPa	1534
285.15 K, 11710 kPa	1533.8
285.15 K, 11717 kPa	1533.8
286.15 K, 12714 kPa	1533.6
286.15 K, 12720 kPa	1533.6
287.15 K, 13718 kPa	1533.4
287.15 K, 13722 kPa	1533.4
288.15 K, 14719 kPa	1533.2
288.15 K, 14722 kPa	1533.2
289.15 K, 15719 kPa	1533
289.15 K, 15720 kPa	1533
290.15 K, 16716 kPa	1532.8
290.15 K, 16717 kPa	1532.8
291.15 K, 17711 kPa	1532.6
291.15 K, 17712 kPa	1532.6
292.15 K, 18703 kPa	1532.5
292.15 K, 18704 kPa	1532.4
293.15 K, 19694 kPa	1532.3
294.15 K, 20683 kPa	1532.1
295.15 K, 21669 kPa	1531.9
296.15 K, 22653 kPa	1531.8
296.15 K, 22654 kPa	1531.8
297.15 K, 23636 kPa	1531.6
298.15 K, 24616 kPa	1531.4
298.15 K, 24617 kPa	1531.4
299.15 K, 25595 kPa	1531.3
299.15 K, 25596 kPa	1531.3
300.15 K, 26572 kPa	1531.1
300.15 K, 26573 kPa	1531.1
301.15 K, 6294 kPa	1484.4
301.15 K, 27548 kPa	1531
302.15 K, 7147 kPa	1484.2
302.15 K, 28521 kPa	1530.9
302.15 K, 28522 kPa	1530.9
303.15 K, 8010 kPa	1484
303.15 K, 8015 kPa	1484
303.15 K, 29493 kPa	1530.7
304.15 K, 8873 kPa	1483.8
304.15 K, 8874 kPa	1483.8
305.15 K, 9734 kPa	1483.6
306.15 K, 10592 kPa	1483.4
306.15 K, 10594 kPa	1483.4
307.15 K, 11449 kPa	1483.2
307.15 K, 11452 kPa	1483.2
308.15 K, 12303 kPa	1483
308.15 K, 12308 kPa	1483.1
309.15 K, 13157 kPa	1482.8
309.15 K, 13163 kPa	1482.9
310.15 K, 14009 kPa	1482.7
310.15 K, 14016 kPa	1482.7
311.15 K, 14859 kPa	1482.5
311.15 K, 14867 kPa	1482.5
312.15 K, 15708 kPa	1482.3
312.15 K, 15718 kPa	1482.4
313.15 K, 16557 kPa	1482.1
313.15 K, 16566 kPa	1482.2
314.15 K, 17405 kPa	1482
314.15 K, 17414 kPa	1482
315.15 K, 18252 kPa	1481.8
315.15 K, 18260 kPa	1481.8
316.15 K, 19097 kPa	1481.7
316.15 K, 19105 kPa	1481.7
317.15 K, 19942 kPa	1481.5
317.15 K, 19949 kPa	1481.5
318.15 K, 20785 kPa	1481.4
318.15 K, 20791 kPa	1481.4
319.15 K, 21626 kPa	1481.2
319.15 K, 21632 kPa	1481.2
320.15 K, 22467 kPa	1481.1
320.15 K, 22471 kPa	1481.1
321.15 K, 23306 kPa	1480.9
321.15 K, 23311 kPa	1480.9
322.15 K, 24144 kPa	1480.8
322.15 K, 24148 kPa	1480.8
323.15 K, 24980 kPa	1480.6
323.15 K, 24983 kPa	1480.6
324.15 K, 25816 kPa	1480.5
324.15 K, 25819 kPa	1480.5
325.15 K, 26650 kPa	1480.4
325.15 K, 26653 kPa	1480.4
326.15 K, 27482 kPa	1480.2
326.15 K, 27484 kPa	1480.2
327.15 K, 28313 kPa	1480.1
327.15 K, 28315 kPa	1480.1
328.15 K, 29144 kPa	1480
328.15 K, 29145 kPa	1480
329.15 K, 7678 kPa	1420.3
329.15 K, 7689 kPa	1420.3
329.15 K, 29973 kPa	1479.9
329.15 K, 29975 kPa	1479.9
330.15 K, 8385 kPa	1420.1
330.15 K, 8394 kPa	1420.1
331.15 K, 9091 kPa	1420
331.15 K, 9099 kPa	1419.9
332.15 K, 9796 kPa	1419.8
332.15 K, 9803 kPa	1419.8
333.15 K, 10500 kPa	1419.6
333.15 K, 10506 kPa	1419.6
334.15 K, 11204 kPa	1419.5
334.15 K, 11209 kPa	1419.5
335.15 K, 11908 kPa	1419.3
335.15 K, 11912 kPa	1419.3
336.15 K, 12610 kPa	1419.2
336.15 K, 12614 kPa	1419.1
337.15 K, 13313 kPa	1419
337.15 K, 13315 kPa	1419
338.15 K, 14014 kPa	1418.8
338.15 K, 14016 kPa	1418.8
339.15 K, 14714 kPa	1418.7
339.15 K, 14716 kPa	1418.7
340.15 K, 15413 kPa	1418.5
340.15 K, 15416 kPa	1418.5
341.15 K, 16111 kPa	1418.4
341.15 K, 16114 kPa	1418.4
